# Patent US4581354A, “3-arylcarbonyl- and 3-cycloalkylcarbonyl-1-aminoalkyl-1H-indoles, compositions and use” (Sterling Drug Inc., priority 1985, dated 1986)
# Where a name gives a salt, the structure may show the parent alone. Read-outs that look alike come from different tables or passages of the source.
# Columns and labels:
# [1] = test system: acetylcholine-induced abdominal constriction; assay: animal or person; type: in vivo, mice; details: Mus musculus; for inhibition in vivo at 3 mg/kg: 3 mg./kg. i.v.; for inhibition in vivo at 10 mg/kg: 10 mg./kg. i.v.; for ED50: read-out: Ach ED50; for inhibition in vivo at 1 mg/kg: 1 mg./kg. i.v.
# bradykinin = assay: anti-bradykinin test (BRDK); type: in vivo; details: for inhibition in vivo at 200 mg/kg: 200 mg./kg. oral; for inhibition in vivo at 200 mg/kg / inhibition in vivo at 300 mg/kg / inhibition in vivo at 100 mg/kg / inhibition in vivo at 30 mg/kg: read-out: BRDK percent inhibition; for inhibition in vivo at 300 mg/kg: 300 mg./kg. oral; for ED50: po; for inhibition in vivo at 30 mg/kg: 30 mg./kg. oral
# Description: (§1) The test procedures used to determine the analgesic activities of the compounds have been described in detail in the prior art and are as follows: The acetylcholine-induced abdominal constriction test, which is a primary analgesic screening test designed to measure the ability of a test agent to suppress acetylcholine-induced abdominal constriction in mice, described by Collier et al., Brit. J. Pharmacol. Chemotherap. 32, 295 (1968); a modification of the anti-bradykinin test, which is also a primary analgesic screening procedure, described by Berkowitz et al., J. Pharmacol. Exptl. Therap. 177, 500-508 (1971), Blane et al., J. Pharm. Pharmacol. 19, 367-373 (1967), Botha et al., Eur. J. Pharmacol. 6, 312-321 (1969) and Deffenu et al., J. Pharm. Pharmacol. 18, 135 (1966); and the rat paw flexion test, described by Kuzuna et al., Chem. Pharm. Bull., 23, 1184-1191 (1975), Winter et al., J. Pharm. Exptl. Therap., 211, 678-685 (1979) and Capetola et al., J. Pharm. Exptl. Therap. 214, 16-23 (1980).
# (§2) Unless noted otherwise, all data were obtained on oral administration and are expressed either as the ED50 or as the percent inhibition at a given dose level (thus 30/100 or 30% inhibition at […].)
# (§3) In some instances, the compounds were retested two or more times, and ED50 values were calculated for each series of repeat tests. In such instances, each of the ED50 values so-obtained is given in a series of values, thus 6, 28, 30, 43 in the case of the species of Example 1AW in the acetylcholine-induced abdominal constriction test.
# rat paw flexion = rat paw flexion test (P.F.); type: in vivo; details: for inhibition in vivo at 30 mg/kg: 30 mg./kg. oral; for inhibition in vivo at 100 mg/kg: 100 mg./kg. oral; for ED50: oral; for inhibition in vivo at 10 mg/kg: 10 mg./kg. oral; for inhibition in vivo at 300 mg/kg: 300 mg./kg. oral
# Description: as §1, §2, §3
# [2] = iv, read-out: Ach percent inhibition
# [3] = po, read-out: P.F. percent inhibition
smiles,measurement,setting,value
CCc1ccc(C(=O)c2c(C)n(CCN3CCOCC3)c3ccccc23)cc1 [Example 1AC],inhibition in vivo at 1.77 mg/kg,"[1]; iv, 1.77 mg./kg. i.v., read-out: Ach percent inhibition",10%
same,inhibition in vivo at 2.2 mg/kg,"[1]; iv, 2.2 mg./kg. i.v., read-out: Ach percent inhibition",10%
same,inhibition in vivo at 3 mg/kg,[1]; [2],80%
same,inhibition in vivo at 10 mg/kg,[1]; [2],100%
same,ED50,[1]; po,30 mg/kg
same,inhibition in vivo at 200 mg/kg,bradykinin,0%
same,inhibition in vivo at 30 mg/kg,rat paw flexion; [3],43%
same,inhibition in vivo at 50 mg/kg,"rat paw flexion; po, 50 mg./kg. oral, read-out: P.F. percent inhibition",57%
same,inhibition in vivo at 100 mg/kg,rat paw flexion; [3],75%
Cc1ccc(C(=O)c2c(C)n(CCN3CCOCC3)c3ccccc23)cc1 [Example 1AE],ED50,[1]; po,29 mg/kg
same,inhibition in vivo at 300 mg/kg,bradykinin,20%
same,ED50,rat paw flexion,66.2 mg/kg
Cc1c(C(=O)c2ccccc2)c2ccccc2n1CCN1CCOCC1 [Example 1AO],ED50,[1]; po,28 mg/kg
same,ED50,bradykinin,111 mg/kg
same,inhibition in vivo at 100 mg/kg,rat paw flexion; [3],75%
Cc1c(C(=O)c2ccc(Cl)cc2)c2ccccc2n1CCN1CCOCC1 [Example 1AQ],ED50,[1]; iv,17 mg/kg
same,inhibition in vivo at 300 mg/kg,"[1]; po, 300 mg./kg. oral, read-out: Ach percent inhibition",53%
same,inhibition in vivo at 10 mg/kg,rat paw flexion; [3],0%
same,inhibition in vivo at 30 mg/kg,rat paw flexion; [3],12%
same,inhibition in vivo at 100 mg/kg,rat paw flexion; [3],12%
Cc1c(C(=O)c2ccccc2)c2ccccc2n1C(C)CN1CCOCC1 (centres unmarked) [Example 1AW],ED50,bradykinin,229 mg/kg
same,ED50,rat paw flexion,26 mg/kg
CC(CN1CCOCC1)n1cc(C(=O)c2ccccc2)c2ccccc21 (centres unmarked) [Example 1AY],ED50,[1]; iv,8.5 mg/kg
same,ED50,bradykinin,141 mg/kg
same,inhibition in vivo at 30 mg/kg,rat paw flexion; [3],0%
same,inhibition in vivo at 100 mg/kg,rat paw flexion; [3],0%
same,inhibition in vivo at 300 mg/kg,rat paw flexion; [3],20%
CSc1ccc(C(=O)c2c(C)n(CCN3CCOCC3)c3ccccc23)cc1 [Example 1D],ED50,[1]; iv,5.1 mg/kg
same,ED50,[1]; sc,49 mg/kg
same,inhibition in vivo at 100 mg/kg,bradykinin; 100 mg./kg. oral,0%
same,ED50,rat paw flexion,64 mg/kg
Cc1c(C(=O)c2ccc([S+](C)[O-])cc2)c2ccccc2n1CCN1CCOCC1 (centres unmarked) [Example 1F],ED50,[1]; iv,13 mg/kg
same,ED50,[1]; po,20 mg/kg
same,inhibition in vivo at 200 mg/kg,bradykinin,0%
same,inhibition in vivo at 100 mg/kg,rat paw flexion; [3],88%
Cc1c(C(=O)c2cc3ccccc3o2)c2ccccc2n1CCN1CCOCC1 [Example 1S],inhibition in vivo at 1 mg/kg,[1]; [2],10%
same,inhibition in vivo at 3 mg/kg,[1]; [2],20%
same,inhibition in vivo at 10 mg/kg,[1]; [2],100%
same,ED50,[1]; po,40 mg/kg
same,ED50,bradykinin,162 mg/kg
Cc1c(C(=O)c2ccccc2F)c2ccccc2n1C(C)CN1CCOCC1 (centres unmarked) [Example 2C],ED50,[1]; iv,3.3 mg/kg
same,ED50,[1]; po,19 mg/kg
same,inhibition in vivo at 30 mg/kg,bradykinin,0%
same,inhibition in vivo at 300 mg/kg,bradykinin,60%
COc1ccc(C(=O)c2c(C)n(C(C)CN3CCOCC3)c3ccccc23)cc1 (centres unmarked) [Example 2I],ED50,[1]; iv,2.6 mg/kg
same,ED50,[1]; po,28 mg/kg
same,ED50,[1]; sc,18 mg/kg
same,ED50,bradykinin,132 mg/kg
same,inhibition in vivo at 100 mg/kg,rat paw flexion; [3],62%
"COc1ccc(C(=O)c2c(C)n(CCN3CCCC(O)C3)c3ccccc23)cc1 (centres unmarked) [Example 3B, 1-[2-(3-hydroxy-1-piperidinyl)ethyl]-2-methyl-3-(4-methoxybenzoyl)-1H-indole]",ED50,[1]; iv,3 mg/kg
same,ED50,[1]; po,26.5 mg/kg
same,ED50,[1]; sc,10 mg/kg
same,inhibition in vivo at 30 mg/kg,rat paw flexion; [3],50%
same,inhibition in vivo at 100 mg/kg,rat paw flexion; [3],86%
same,inhibition in vivo at 300 mg/kg,rat paw flexion; [3],86%
"Cc1c(C(=O)c2cccc(N)c2)c2ccccc2n1CCN1CCOCC1 [Example 4A, 2-methyl-3-(3-aminobenzoyl)-1-[2-(4-morpholinyl)ethyl]-1H-indole]",ED50,[1]; po,16 mg/kg
same,ED50,bradykinin,53 mg/kg
"Cc1c(C(=O)c2ccc(N)cc2)c2ccccc2n1CCN1CCOCC1 [Example 4B, 2-methyl-3-(4-aminobenzoyl)-1-[2-(4-morpholinyl)ethyl]-1H-indole]",ED50,[1]; iv,6 mg/kg
same,ED50,[1]; po,24 mg/kg
same,ED50,bradykinin,38 mg/kg
same,ED50,rat paw flexion,27.6 mg/kg
"CC(=O)Nc1ccc(C(=O)c2c(C)n(CCN3CCOCC3)c3ccccc23)cc1 [Example 5A, 2-methyl-3-(4-acetylaminobenzoyl)-1-[2-(4-morpholinyl)ethyl]-1H-indole]",inhibition in vivo at 1 mg/kg,[1]; [2],20%
same,inhibition in vivo at 3 mg/kg,[1]; [2],29%
same,inhibition in vivo at 10 mg/kg,[1]; [2],30%
same,ED50,[1]; po,31 mg/kg
same,inhibition in vivo at 300 mg/kg,bradykinin,0%
CC(=O)Nc1cccc(C(=O)c2c(C)n(CCN3CCOCC3)c3ccccc23)c1 [Example 5B],ED50,[1]; po,25 mg/kg
same,ED50,bradykinin,61 mg/kg
same,inhibition in vivo at 10 mg/kg,rat paw flexion; [3],0%
same,inhibition in vivo at 30 mg/kg,rat paw flexion; [3],12%
same,inhibition in vivo at 100 mg/kg,rat paw flexion; [3],12%
"Cc1c(C(=O)c2ccc(NC(=O)C(F)(F)F)cc2)c2ccccc2n1CCN1CCOCC1 [Example 5C, 2-methyl-3-[4-(N-trifluoroacetylamino)benzoyl]-1-[2-(4-morpholinyl)ethyl]-1H-indole]",ED50,[1]; po,19 mg/kg
same,inhibition in vivo at 30 mg/kg,bradykinin,20%
same,inhibition in vivo at 100 mg/kg,bradykinin; 100 mg./kg. oral,60%
same,inhibition in vivo at 300 mg/kg,bradykinin,60%
Cc1c(C(=O)c2ccc(NC(=O)c3ccccc3)cc2)c2ccccc2n1CCN1CCOCC1 [Example 5D],inhibition in vivo at 3 mg/kg,[1]; [2],57%
same,ED50,[1]; iv,29.1 mg/kg
same,ED50,[1]; po,84 mg/kg
same,inhibition in vivo at 200 mg/kg,bradykinin,20%
"Cc1c(C(=O)c2ccc(O)cc2)c2ccccc2n1CCN1CCOCC1.Cl [Example 6, 2-methyl-3-(4-hydroxybenzoyl)-1-[2-(4-morpholinyl)ethyl]-1H-indole hydrochloride]",inhibition in vivo at 10 mg/kg,[1]; [2],0%
same,inhibition in vivo at 30 mg/kg,"[1]; iv, 30 mg./kg. i.v., read-out: Ach percent inhibition",0%
same,ED50,[1]; po,83 mg/kg
same,inhibition in vivo at 30 mg/kg,"[1]; sc, 30 mg./kg. s.c., read-out: Ach percent inhibition",13%
same,inhibition in vivo at 100 mg/kg,bradykinin; 100 mg./kg. oral,0%
same,inhibition in vivo at 300 mg/kg,bradykinin,0%
"Cc1c(C(=O)c2ccc(CN)cc2)c2ccccc2n1CCN1CCOCC1.Cl.Cl [Example 7, 2-methyl-3-(4-aminomethylbenzoyl)-1-[2-(4-morpholinyl)ethyl]-1H-indole dihydrochloride]",ED50,[1]; po,40 mg/kg
same,inhibition in vivo at 300 mg/kg,bradykinin,0%
"CNc1ccc(C(=O)c2c(C)n(CCN3CCOCC3)c3ccccc23)cc1 [Example 8A, 2-methyl-3-(4-methylaminobenzoyl)-1-[2-(4-morpholinyl)-ethyl]-1H-indole dihydrochloride hemihydrate]",ED50,[1]; po,32 mg/kg
same,inhibition in vivo at 30 mg/kg,rat paw flexion; [3],62%
"Cc1c(C(=O)c2ccc(CNC(=N)N)cc2)c2ccccc2n1CCN1CCOCC1 [Example 17, 2-methyl-3-(4-guanidinylmethylbenzoyl)-1-[2-(4-morpholinyl)ethyl]-1H-indole sulfate (2:1)]",inhibition in vivo at 30 mg/kg,"[1]; po, 30 mg./kg. oral, read-out: Ach percent inhibition",7%
same,ED50,[1]; sc,6.6 mg/kg
same,inhibition in vivo at 100 mg/kg,"bradykinin; sc, 100 mg./kg. s.c.",33%
